Results reported in patent US9012489B2, “Phenyl-3-aza-bicyclo[3.1.0]hex-3-yl-methanones and the use thereof as medicament” (Boehringer Ingelheim International GmbH, priority 2011, dated 2015).

Each compound was assayed against T1, GlyT1 transporter (Homo sapiens, UniProt P48067) (assay: GlyT1 assay: 3H-glycine uptake into SK-N-MC cells (Cytostar-T format)). Details: glycine uptake in human SK-N-MC cells endogenously expressing GlyT1; 500 nM glycine, 1% DMSO, signal recorded over 60 min.
T1 construct: endogenously expressing the GlyT1 transporter; host or cells: SK-N-MC human neuroblastoma cells
T1 sequence (P48067 1-706): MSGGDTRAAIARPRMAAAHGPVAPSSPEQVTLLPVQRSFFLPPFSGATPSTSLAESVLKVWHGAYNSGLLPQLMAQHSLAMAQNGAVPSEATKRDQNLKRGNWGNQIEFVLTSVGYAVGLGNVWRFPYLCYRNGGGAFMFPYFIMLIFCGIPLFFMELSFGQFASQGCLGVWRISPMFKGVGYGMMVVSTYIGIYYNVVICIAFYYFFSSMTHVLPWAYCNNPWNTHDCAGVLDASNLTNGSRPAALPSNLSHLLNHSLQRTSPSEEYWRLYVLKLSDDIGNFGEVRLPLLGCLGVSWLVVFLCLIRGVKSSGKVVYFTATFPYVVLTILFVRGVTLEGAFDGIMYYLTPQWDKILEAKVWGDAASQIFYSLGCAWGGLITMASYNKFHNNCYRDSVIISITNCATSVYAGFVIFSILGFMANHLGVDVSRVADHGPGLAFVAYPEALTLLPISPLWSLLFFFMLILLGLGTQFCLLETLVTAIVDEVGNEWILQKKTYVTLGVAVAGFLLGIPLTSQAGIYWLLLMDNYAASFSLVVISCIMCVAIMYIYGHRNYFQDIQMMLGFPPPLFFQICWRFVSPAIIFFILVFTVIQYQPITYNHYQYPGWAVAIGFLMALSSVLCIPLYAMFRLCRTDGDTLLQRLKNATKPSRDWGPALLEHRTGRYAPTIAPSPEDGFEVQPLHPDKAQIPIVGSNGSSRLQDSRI
Assay type: cell-based
Method in brief: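 Uptake slopes, measured over 60 min from the linear kinetic range, give IC50 from 8 compound concentrations, with 10 μM RG-1678 setting background. Substrate is 500 nM glycine (250 nM ³H, 250 nM unlabelled) in HBSS/5 mM alanine, 1% DMSO, after roughly 5-10 min compound preincubation. Cells: confluent SK-N-MC endogenously expressing human GlyT1.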

SMILES	IC50 [µM]
C[C@H](Oc1ccc(S(C)(=O)=O)cc1C(=O)N1CC2CC2(c2noc(C3CC3)n2)C1)C(F)(F)F (mixture of isomers) [Example 9, [1-(5-Cyclopropyl-[1,2,4]oxadiazol-3-yl)-3-aza-bicyclo[3.1.0]hex-3-yl]-[5-methanesulfonyl-2-(2,2,2-trifluoro-1-methyl-ethoxy)-phenyl]-methanone]	0.018
C[C@@H](Oc1ccc(S(C)(=O)=O)cc1C(=O)N1CC2CC2(c2noc(C(F)(F)F)n2)C1)C(F)(F)F (single isomer, unassigned) [Example 4, [5-Methanesulfonyl-2-(2,2,2-trifluoro-1-methyl-ethoxy)-phenyl]-[1-(5-trifluoromethyl-[1,2,4]oxadiazol-3-yl)-3-aza-bicyclo[3.1.0]hex-3-yl]-methanone]	0.009
C[C@H](Oc1ccc(S(C)(=O)=O)cc1C(=O)N1CC2CC2(c2noc(C3CC(F)(F)C3)n2)C1)C(F)(F)F (single isomer, unassigned) [Example 60]	0.372
C[C@@H](Oc1ccc(S(C)(=O)=O)cc1C(=O)N1CC2CC2(c2nc(C(F)(F)F)co2)C1)C(F)(F)F (mixture of isomers) [Example 113, [5-Methanesulfonyl-2-(2,2,2-trifluoro-1-methyl-ethoxy)-phenyl]-[1-(4-trifluoromethyl-oxazol-2-yl)-3-aza-bicyclo[3.1.0]hex-3-yl]-methanone]	0.216
CS(=O)(=O)c1ccc(O[C@@H]2CCOC2)c(C(=O)N2CC3CC3(c3noc(C(F)(F)F)n3)C2)c1 (single isomer, unassigned) [Example 140, [5-Methanesulfonyl-2-(tetrahydro-furan-3-yloxy)-phenyl]-[1-(5-trifluoromethyl-[1,2,4]oxadiazol-3-yl)-3-aza-bicyclo[3.1.0]hex-3-yl]-methanone]	3
CCS(=O)(=O)c1ccc(O[C@@H](C)C(F)(F)F)c(C(=O)N2CC3CC3(c3cc(C(F)(F)F)on3)C2)c1 (single isomer, unassigned) [Example 103, [5-Ethanesulfonyl-2-(2,2,2-trifluoro-1-methyl-ethoxy)-phenyl]-[1-(5-trifluoromethyl-isoxazol-3-yl)-3-aza-bicyclo[3.1.0]hex-3-yl]-methanone]	0.007
Cc1conc1C12CC1CN(C(=O)c1cc(S(C)(=O)=O)ccc1O[C@@H](C)C(F)(F)F)C2 (mixture of isomers) [Example 108, [5-Methanesulfonyl-2-(2,2,2-trifluoro-1-methyl-ethoxy)-phenyl]-[1-(4-methyl-isoxazol-3-yl)-3-aza-bicyclo[3.1.0]hex-3-yl]-methanone]	0.01
CS(=O)(=O)c1ccc(O[C@@H]2CCOC2)c(C(=O)N2CC3CC3(c3noc(C(F)(F)F)n3)C2)c1 (single isomer, unassigned) [Example 139, [5-Methanesulfonyl-2-(tetrahydro-furan-3-yloxy)-phenyl]-[1-(5-trifluoromethyl-[1,2,4]oxadiazol-3-yl)-3-aza-bicyclo[3.1.0]hex-3-yl]-methanone]	0.253
C[C@H](Oc1ccc(S(C)(=O)=O)cc1C(=O)N1CC2CC2(c2nnc(C3(C(F)(F)F)CC3)o2)C1)C(F)(F)F (mixture of isomers) [Example 151, [5-Methanesulfonyl-2-(2,2,2-trifluoro-1-methyl-ethoxy)-phenyl]-{1-[5-(1-trifluoromethyl-cyclopropyl)-[1,3,4]oxadiazol-2-yl]-3-aza-bicyclo[3.1.0]hex-3-yl}-methanone]	0.01
C[C@H](Oc1ccc(S(C)(=O)=O)cc1C(=O)N1CC2CC2(C2=NCC(C(F)(F)F)O2)C1)C(F)(F)F (mixture of isomers) [Example 57, [5-Methanesulfonyl-2-(2,2,2-trifluoro-1-methyl-ethoxy)-phenyl]-[1-(5-trifluoromethyl-4,5-dihydro-oxazol-2-yl)-3-aza-bicyclo[3.1.0]hexyl-3-yl]-methanone]	0.354
C[C@H](Oc1ccc(S(C)(=O)=O)cc1C(=O)N1CC2CC2(c2cccc(C(F)(F)F)n2)C1)C(F)(F)F (single isomer, unassigned) [Example 55, [5-Methanesulfonyl-2-(2,2,2-trifluoro-1-methyl-ethoxy)-phenyl]-[1-(6-trifluoromethyl-pyridin-2-yl)-3-aza-bicyclo[3.1.0]hex-3-yl]-methanone]	0.022
C[C@H](Oc1ccc(S(C)(=O)=O)cc1C(=O)N1CC2CC2(c2ncccn2)C1)C(F)(F)F (mixture of isomers) [Example 14, [5-Methanesulfonyl-2-(2,2,2-trifluoro-1-methyl-ethoxy)-phenyl]-(1-pyrimidin-2-yl-3-aza-bicyclo[3.1.0]hex-3-yl)-methanone]	0.067
C[C@@H](Oc1ccc(S(C)(=O)=O)cc1C(=O)N1CC2CC2(c2noc(C3CC3(F)F)n2)C1)C(F)(F)F (mixture of isomers) [Example 64, {1-[5-(2,2-Difluoro-cyclopropyl)-[1,2,4]oxadiazol-3-yl]-3-aza-bicyclo[3.1.0]hex-3-yl}-[5-methanesulfonyl-2-(2,2,2-trifluoro-1-methyl-ethoxy)-phenyl]-methanone]	0.004
C[C@H](Oc1ccc(S(C)(=O)=O)cc1C(=O)N1CC2CC2(c2noc(C3CC3(F)F)n2)C1)C(F)(F)F (mixture of isomers) [Example 63, {1-[5-(2,2-Difluoro-cyclopropyl)-[1,2,4]oxadiazol-3-yl]-3-aza-bicyclo[3.1.0]hex-3-yl}-[5-methanesulfonyl-2-(2,2,2-trifluoro-1-methyl-ethoxy)-phenyl]-methanone]	0.01
C[C@H](Oc1ccc(S(C)(=O)=O)cc1C(=O)N1CC2CC2(c2noc(C(F)(F)F)n2)C1)C(F)(F)F (single isomer, unassigned) [Example 3, [5-Methanesulfonyl-2-(2,2,2-trifluoro-1-methyl-ethoxy)-phenyl]-[1-(5-trifluoromethyl-[1,2,4]oxadiazol-3-yl)-3-aza-bicyclo[3.1.0]hex-3-yl]-methanone]	1.02
CCS(=O)(=O)c1ccc(O[C@@H](C)C(F)(F)F)c(C(=O)N2CC3CC3(c3cc(C(F)(F)F)on3)C2)c1 (single isomer, unassigned) [Example 104, [5-Ethanesulfonyl-2-(2,2,2-trifluoro-1-methyl-ethoxy)-phenyl]-[1-(5-trifluoromethyl-isoxazol-3-yl)-3-aza-bicyclo[3.1.0]hex-3-yl]-methanone]	0.292
C[C@@H](Oc1ccc(S(C)(=O)=O)cc1C(=O)N1CC2CC2(c2nc(C3(C(F)(F)F)CC3)no2)C1)C(F)(F)F (mixture of isomers) [Example 156, [5-Methanesulfonyl-2-(2,2,2-trifluoro-1-methyl-ethoxy)-phenyl]-{1-[3-(1-trifluoromethyl-cyclopropyl)-[1,2,4]oxadiazol-5-yl]-3-aza-bicyclo[3.1.0]hex-3-yl}-methanone]	0.011
CC(C)Oc1ccc(S(C)(=O)=O)cc1C(=O)N1CC2CC2(c2nc(C(F)(F)F)co2)C1 (racemic) [Example 110, (2-Isopropoxy-5-methanesulfonyl-phenyl)-[1-(4-trifluoromethyl-oxazol-2-yl)-3-aza-bicyclo[3.1.0]hex-3-yl]-methanone]	1.13
C[C@H](Oc1ccc(S(C)(=O)=O)cc1C(=O)N1CC2CC2(c2noc(C(C)(C)C(F)(F)F)n2)C1)C(F)(F)F (mixture of isomers) [Example 12, [5-Methanesulfonyl-2-(2,2,2-trifluoro-1-methyl-ethoxy)-phenyl]-{1-[5-(2,2,2-trifluoro-1,1-dimethyl-ethyl)-[1,2,4]oxadiazol-3-yl]-3-aza-bicyclo[3.1.0]hex-3-yl}-methanone]	0.018
CCS(=O)(=O)c1ccc(O[C@@H](C)C(F)(F)F)c(C(=O)N2CC3CC3(c3cc(C(F)(F)F)on3)C2)c1 (mixture of isomers) [Example 102, [5-Ethanesulfonyl-2-(2,2,2-trifluoro-1-methyl-ethoxy)-phenyl]-[1-(5-trifluoromethyl-isoxazol-3-yl)-3-aza-bicyclo[3.1.0]hex-3-yl]-methanone]	0.018
C[C@@H](Oc1ccc(S(C)(=O)=O)cc1C(=O)N1CC2CC2(c2nc(C(F)(F)F)no2)C1)C(F)(F)F (single isomer, unassigned) [Example 86, [5-Methanesulfonyl-2-(2,2,2-trifluoro-1-methyl-ethoxy)-phenyl]-[1-(3-trifluoromethyl-[1,2,4]oxadiazol-5-yl)-3-aza-bicyclo[3.1.0]hex-3-yl]-methanone]	0.02
C[C@H](Oc1ccc(S(C)(=O)=O)cc1C(=O)N1CC2CC2(c2csc(C(F)(F)F)n2)C1)C(F)(F)F (single isomer, unassigned) [Example 28, [5-Methanesulfonyl-2-(2,2,2-trifluoro-1-methyl-ethoxy)-phenyl]-[1-(2-trifluoromethyl-thiazol-4-yl)-3-aza-bicyclo[3.1.0]hex-3-yl]-methanone]	1.44
